Data set [1] has as its system IL-13 induced STAT6 phosphorylation in BEAS-2B human lung epithelial cells. Description: Cellular JAK potency assay: inhibition of IL-13 (AlphaScreen, BEAS-2B). The data set is classed as cell-based. Here is the method: The AlphaScreen JAK1 cellular potency assay was carried out by measuring interleukin-13 (IL-13, R&D Systems) induced STAT6 phosphorylation in BEAS-2B human lung epithelial cells (ATCC). The anti-STAT6 antibody (Cell Signaling Technologies) was conjugated to AlphaScreen acceptor beads (Perkin Elmer), while the anti-pSTAT6 (pTyr641) antibody (Cell Signaling Technologies) was biotinylated using EZ-Link Sulfo-NHS-Biotin (Thermo Scientific).
BEAS-2B cells were grown at 37° C. in a 5% CO2 humidified incubator in 50% DMEM/50% F-12 medium (Life Technologies) supplemented with 10% FBS (Hyclone), 100 U/mL penicillin, 100 μg/mL streptomycin (Life Technologies), and 2 mM GlutaMAX (Life Technologies). On day 1 of the assay, cells were seeded at a 7,500 cells/well density in white poly-D-lysine-coated 384-well plates (Corning) with 25 μL medium, and were allowed to adhere overnight in the incubator. […] After a minimum of 2 h incubation, the assay plates were read on the EnVision plate reader. AlphaScreen luminescence signals were recorded and utilized to calculate the percent inhibition values based on DMSO and background controls.
For dose-response analysis, percent inhibition data were plotted vs. compound concentrations, and IC50 values were determined from a 4-parameter robust fit model with the Prism software. Results may also be expressed as the negative logarithm of the IC50 value, pIC50.
A general note: Bead proximity is the source of the signal in Alpha formats.

Data set [2] has as its target T1, SLK (Homo sapiens, UniProt Q9H2G2).
T1 construct: made in house; host or cells: T7 phage in E. coli (BL21-derived) or HEK-293
Nature of the data set: Kinome screen, SLK. The data set is classed as binding. To be noted: screened at 1 μM. The protocol:
Kinase-tagged T7 phage strains were grown in parallel in 24-well blocks in an E. coli host derived from the BL21 strain. E. coli were grown to log-phase and infected with T7 phage from a frozen stock (multiplicity of infection=0.4) and incubated with shaking at 32° C. until lysis (90-150 minutes). The lysates were centrifuged (6,000×g) and filtered (0.2 μm) to remove cell debris. The remaining kinases were produced in HEK-293 cells and subsequently tagged with DNA for qPCR detection.
Streptavidin-coated magnetic beads were treated with biotinylated small molecule ligands for 30 minutes at room temperature to generate affinity resins for kinase assays. The liganded beads were blocked with excess biotin and washed with blocking buffer (SeaBlock (Pierce), 1% BSA, 0.05% Tween 20, 1 mM DTT) to remove unbound ligand and to reduce non-specific phage binding. […] Test compounds were prepared as 40× stocks in 100% DMSO and directly diluted into the assay. All reactions were performed in polypropylene 384-well plates in a final volume of 0.04 ml. […] The beads were then re-suspended in elution buffer (1×PBS, 0.05% Tween 20, 0.5 μM non-biotinylated affinity ligand) and incubated at room temperature with shaking for 30 minutes. The kinase concentration in the eluates was measured by qPCR.

Data set [3] deals with BEAS-2B human lung epithelial cells. Description: CellTiter-Glo cell viability/cytotoxicity assay. The data set is classed as cell-based. To be noted: BEAS-2B cells, 48 h, concentration at 15% inhibition threshold. The protocol: A CellTiter-Glo luminescent cell viability/cytotoxicity assay was carried out in BEAS-2B human lung epithelial cells (ATCC) under the normal growth condition.
Cells were grown at 37° C. in a 5% CO2 humidified incubator in 50% DMEM/50% F-12 medium (Life Technologies) supplemented with 10% FBS (Hyclone), 100 U/mL penicillin, 100 μg/mL streptomycin (Life Technologies), and 2 mM GlutaMAX (Life Technologies). On day 1 of the assay, cells were seeded at a 500 cells/well density in white 384-well tissue culture plates (Corning) with 25 μL medium, and were allowed to adhere overnight in the incubator. On day 2 of the assay, 5 μL of medium containing dose-responses of test compounds was added, and incubated at 37° C. for 48 h. 30 μL of CellTiter-Glo detection solution (Promega) was subsequently added, mixed on an orbital shaker for 5 min, and incubated for additional 10 min before being read on the EnVision reader. Luminescence signals were recorded and percent DMSO control values were calculated.
For dose-response analysis, percent DMSO control data were plotted vs. compound concentrations to derive dose-response curves by line connecting each data point. The concentration at which each curve crosses the 15% inhibition threshold is defined as CC15.
Background: Cellular ATP, detected with luciferase, serves as a proxy for viable cell number.

Data set [4] can be described thus: Dermal pharmacokinetics in mini-pig skin. To be noted: model cream and ointment formulations, without detectable plasma exposure. The data set is classed as in vivo. The text has this: The objective of this assay was to determine the epidermal, dermal and plasma pharmacokinetics of a test compound following a 24 hr exposure to intact mouse or mini-pig skin.
Twenty-four hours prior to dosing the hair was shaved from the back of 25 g male Balb/c mice exposing an area at of least 6 cm^2 (about 10% of body surface) and, in a separate experiment, of 10 kg Gottingen mini-pigs exposing an area of at least 450 cm^2 (about 10% of body surface). At time zero, following isoflurane anesthesia, the test compound was applied to the back of mice or mini-pigs at a dose of 25 μL/cm^2. The skin was covered with an adhesive cover to prevent loss of compound to the cage or bedding.
Following 24 h exposure, the backs were gently washed with soap and water to remove non-absorbed drug and patted dry. Immediately following this washing, blood was drawn by cardiac puncture from the mice and via venipuncture from the mini-pigs. The outer skin (stratum corneum) was then removed by adhesive tape stripping. Upon exposure of the epidermis a 0.5 cm punch biopsy was taken. The epidermis and dermis were quickly separated, weighed and snap frozen. […]
Epidermis and dermis samples were homogenized in 1:10 (w/v) water using a Covaris ultrasonic homogenizer. Samples were extracted in 3 volumes of acetonitrile and quantified against a standard curve via LC-MS analysis.

What is called inhibition is the percentage by which the read-out fell short of the control. Read a high inhibition as a strong effect.

Where two headings read alike, the source gives them in different places.

T1 sequence (Q9H2G2 whole entry): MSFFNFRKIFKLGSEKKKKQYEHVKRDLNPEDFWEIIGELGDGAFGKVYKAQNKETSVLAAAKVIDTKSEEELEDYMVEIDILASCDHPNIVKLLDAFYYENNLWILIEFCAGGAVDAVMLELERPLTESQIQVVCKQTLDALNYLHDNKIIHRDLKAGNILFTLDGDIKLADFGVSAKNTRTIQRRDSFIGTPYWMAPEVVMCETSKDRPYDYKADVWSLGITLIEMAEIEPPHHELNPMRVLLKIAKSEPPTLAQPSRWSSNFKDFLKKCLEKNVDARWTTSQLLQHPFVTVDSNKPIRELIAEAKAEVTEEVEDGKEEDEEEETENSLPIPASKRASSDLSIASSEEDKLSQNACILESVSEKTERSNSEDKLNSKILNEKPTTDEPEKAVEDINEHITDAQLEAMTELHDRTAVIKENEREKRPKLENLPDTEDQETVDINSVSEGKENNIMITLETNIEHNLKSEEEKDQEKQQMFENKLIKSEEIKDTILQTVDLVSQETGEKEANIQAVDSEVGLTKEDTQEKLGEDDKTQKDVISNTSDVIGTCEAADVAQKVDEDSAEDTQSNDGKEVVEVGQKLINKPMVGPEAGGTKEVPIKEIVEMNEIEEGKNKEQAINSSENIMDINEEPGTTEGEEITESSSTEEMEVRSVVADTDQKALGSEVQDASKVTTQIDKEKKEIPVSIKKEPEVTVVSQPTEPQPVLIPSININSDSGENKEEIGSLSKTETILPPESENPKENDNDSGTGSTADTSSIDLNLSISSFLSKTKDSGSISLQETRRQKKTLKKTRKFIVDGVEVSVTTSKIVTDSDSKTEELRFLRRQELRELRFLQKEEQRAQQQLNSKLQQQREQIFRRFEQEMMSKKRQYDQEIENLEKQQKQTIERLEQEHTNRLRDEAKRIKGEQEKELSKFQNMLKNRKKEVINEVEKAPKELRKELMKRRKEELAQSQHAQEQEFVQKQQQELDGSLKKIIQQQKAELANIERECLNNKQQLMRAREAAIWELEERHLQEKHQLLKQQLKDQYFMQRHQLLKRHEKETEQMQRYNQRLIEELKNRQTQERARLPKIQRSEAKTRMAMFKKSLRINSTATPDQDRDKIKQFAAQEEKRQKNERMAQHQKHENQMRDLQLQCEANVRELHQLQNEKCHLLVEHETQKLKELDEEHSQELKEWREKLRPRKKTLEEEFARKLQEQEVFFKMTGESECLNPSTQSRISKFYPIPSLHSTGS

As to `CCc1cc(O)c(F)cc1-c1cc(F)c2c(-c3nc4c([nH]3)CCN(C(=O)CN3CCOCC3)C4)n[nH]c2c1` [Compound 1, 1-(2-(6-(2-ethyl-5-fluoro-4-hydroxyphenyl)-4-fluoro-1H-indazol-3-yl)-1,4,6,7-tetrahydro-5H-imidazo[4,5-c]pyridin-5-yl)-2-morpholinoethan-1-one], the IC50 in data set [1] (Assay 2, BEAS-2B cells, read-out: IC50 for inhibition of IL-13) is 13 nM; in data set [1] (BEAS-2B cells, read-out: pIC50, inhibition of IL-13 induced STAT6 phosphorylation (converted)) it was 12.6 nM. Further, the inhibition at 1 µM in data set [2] is 100%. For the same compound, the CC15 in data set [3] was 3.16 µM. In addition, the “duration of sustained dermal levels” value in data set [4] is recorded as “at least 7 days”.

The values are drawn from US10493077B2, “Fused imidazo-piperidine JAK inhibitor compound” (THERAVANCE BIOPHARMA R&D IP, LLC, priority 2017, dated 2019).
